From patent US20240108740A1, “THERAPEUTIC COMPOSITIONS INCLUDING SPN10 AND USES THEREOF” (Stealth BioTherapeutics Inc., priority 2022, published 2024)
Residues, ends and D or L forms follow the SMILES beside them.

System: mice
Experiment: Example 57: Ang II-induced hypertensive cardiomyopathy
Type: in vivo, mouse
Method: Mouse experiments, drug delivery, echocardiography and blood pressure measurement. Six to ten mice will be included in each experimental group (Saline, Ang II, Ang II+peptide conjugate, Ang II+aromatic-cationic peptide, Ang II+SPN10, Ang II+SPN10+aromatic-cationic peptide, WT, Gαq, Gαq+peptide conjugate, Gαq+aromatic-cationic peptide, Gαq+SPN10, Gαq+SPN10+aromatic-cationic peptide). A pressor dose of Ang II (1.1 mg/kg/d) will be continuously administered for 4 weeks using subcutaneous Alzet 1004 osmotic minipumps, either alone or in the presence of with peptide conjugates (3 mg/kg/d), aromatic-cationic peptides (an equivalent molar dose of aromatic-cationic peptide based on concentration of the aromatic-cationic peptide administered in the peptide conjugate group), SPN10(s) (an equivalent molar dose of SPN10 based on concentration of SPN10 administered in the peptide conjugate group), or SPN10(s) in combination with aromatic-cationic peptides (e.g., an equivalent molar dose of SPN10 based on the concentration of SPN10 administered in the peptide conjugate treatment group and an equivalent molar dose of aromatic-cationic peptide based on the concentration of aromatic-cationic peptide administered in the peptide conjugate treatment group). Echocardiography will be performed at baseline and 4 weeks after pump implantation using a Siemens Acuson CV-70 equipped with a 13 MHz probe. […] MTI will be calculated as the ratio of the sum of isovolemic contraction and relaxation time to LV ejection time. […]
Blood pressure will be measured in a separate group of mice by telemetry using an intravascular catheter PA-C 10 (DSI, MN), in which measurement will be performed every three hours starting from 2 days before pump placement until 2 days after Ang pump placement. […]
Quantitative Pathology. […] Quantitative analysis of fibrosis will be performed by measuring the percentage of blue-staining fibrotic tissue relative to the total cross-sectional area of the ventricles. […]

N=C(N)NCCC[C@H](NC(=O)[C@@H](N)Cc1c[nH]c2ccccc12)C(=O)N[C@@H](Cc1c[nH]c2ccccc12)C(=O)N[C@@H](CCCCN)C(N)=O [SPN10, H-L-Trp-L-Arg-L-Trp-L-Lys-NH2] (H-WRWK-NH2)
Ang II-induced ventricular fibrosis (trichrome) (4 weeks of Ang II): fully attenuated | cardiac mitochondrial protein carbonyls (4 weeks of Ang II): significantly reduce cardiac mitochondrial protein carbonyls | Ang II-induced cardiomyopathy (Ang II 1.1 mg/kg/d, 4 weeks): ameliorate Ang II-induced cardiomyopathy
